The values that follow come from patent US7888369B2, “Oxazoloisoquinoline derivatives as thrombin receptor antagonists” (Schering Corporation, priority 2005, dated 2011).

pKi: −log10 of the molar value.

The experiment addresses T1, thrombin receptor (Homo sapiens, UniProt P25116).
T1 construct: tissue North Jersey Blood Center (East Orange, N.J.); host or cells: platelet membranes prepared from platelet concentrates
T1 sequence (P25116 22-425): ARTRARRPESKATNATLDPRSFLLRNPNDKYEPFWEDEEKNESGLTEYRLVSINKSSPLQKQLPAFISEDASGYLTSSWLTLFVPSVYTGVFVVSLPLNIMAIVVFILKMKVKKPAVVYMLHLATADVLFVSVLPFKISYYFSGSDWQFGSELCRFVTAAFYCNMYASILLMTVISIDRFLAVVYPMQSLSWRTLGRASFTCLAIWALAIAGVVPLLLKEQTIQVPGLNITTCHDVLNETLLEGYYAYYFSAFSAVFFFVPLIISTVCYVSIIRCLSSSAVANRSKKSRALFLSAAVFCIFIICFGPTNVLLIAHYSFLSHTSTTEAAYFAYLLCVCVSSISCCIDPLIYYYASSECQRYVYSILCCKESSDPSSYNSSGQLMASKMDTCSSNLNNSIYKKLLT
In words: High throughput thrombin receptor radioligand binding assay ([3H]haTRAP, platelet membranes). The procedure: In Vitro Testing Procedure for Thrombin Receptor Antagonists:
Preparation of [^3H]ha TRAP
A(pF-F)R(ChA)(hR)(I2—Y)—NH2 (1.03 mg) and 10% Pd/C (5.07 mg) were suspended in DMF (250 μl) and diisopropylethylamine (10 μl). The vessel was attached to the tritium line, frozen in liquid nitrogen and evacuated. Tritium gas (342 mCi) was then added to the flask, which was stirred at room temperature for 2 hours. At the completion of the reaction, the excess tritium was removed and the reacted peptide solution was diluted with DMF (0.5 ml) and filtered to remove the catalyst. The collected DMF solution of the crude peptide was diluted with water and freeze dried to remove the labile tritium. The solid peptide was redissolved in water and the freeze drying process repeated. The tritiated peptide ([^3H]haTRAP) was dissolved in 0.5 ml of 0.1% aqueous TFA and purified by HPLC using the following conditions: column, Vydac™ C18, 25 cm×9.4 mm I.D.; mobile phase, (A) 0.1% TFA in water, (B) 0.1% TFA in CH3CN; gradient, (A/B) from 100/0 to 40/60 over 30 min; flow rate, 5 ml/min; detection, UV at 215 nm. The radiochemical purity of [^3H]haTRAP was 99% as analyzed by HPLC. A batch of 14.9 mCi at a specific activity of 18.4 Ci/mmol was obtained.
Preparation of Platelet Membranes
Platelet membranes were prepared using a modification of the method of Natarajan et al. (Natarajan et al, Int. J. Peptide Protein Res. 45:145-151 (1995)) from 20 units of platelet concentrates obtained from the North Jersey Blood Center (East Orange, N.J.) within 48 hours of collection. All steps were carried out at 4° C. under approved biohazard safety conditions. Platelets were centrifuged at 100×g for 20 minutes at 4° C. to remove red cells. The supernatants were decanted and centrifuged at 3000×g for 15 minutes to pellet platelets. Platelets were re-suspended in 10 mM Tris-HCl, pH 7.5, 150 mM NaCl, 5 mM EDTA, to a total volume of 200 ml and centrifuged at 4400×g for 10 minutes. This step was repeated two additional times. […] Protein concentration was determined by a Lowry assay (Lowry et al., J. Biol. Chem., 193:265-275 (1951)). […]

In the case of `O=C1OC[C@@H]2C(/C=C/c3ccc(-c4cccc(F)c4)cn3)c3ccccc3CN12` (single isomer, unassigned) [Compound 12, 10-{2-[5-(3-Fluoro-phenyl)-pyridin-2-yl]-vinyl}-1,5,10,10a-tetrahydro-oxazolo[3,4-b]isoquinolin-3-one], the inhibition at 1 µM (at 1 μM, read-out: Thrombin Receptor Antagonist Activity: % inhibition) was found to be 27%.

With `O=C1OC[C@@H]2C(/C=C/c3ccc(-c4cccc(F)c4)cn3)c3ccccc3CN12` (single isomer, unassigned) [Compound 13, 10-{2-[5-(3-Fluoro-phenyl)-pyridin-2-yl]-vinyl}-1,5,10,10a-tetrahydro-oxazolo[3,4-b]isoquinolin-3-one], the “Thrombin Receptor Antagonist Activity: % inhibition” value (at 1 μM) was 15%.

For the compound `O=C1OC[C@@H]2C(/C=C/c3ccc(-c4cccc(F)c4)cn3)C3CCCCC3CN12` (stereo partly drawn) [Compound 16], the pKi was 7.92.
